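Assay format: 96-well plates, 48-hour exposure. The concentration for 50% growth inhibition is given as GI50.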 Activity calls are given as the source filed them. Rule as the data show it: active = GI50 up to about 1.1 µM and inactive = higher.

Test systems include UACC-62; MCF7; SR; ACHN; IGROV-1; DU-145; Malme-3M; HCT-15; U-251; KM12; OVCAR-3; OVCAR-4; A498; SK-OV-3; HCC 2998; MDA-MB-435; Hs-578T; TK-10; SK-MEL-2; HOP-92.
Common to all, as to experiment: NCI tumour cell line growth inhibition, 48 h

Regarding `COC(=O)C1=C(C(=O)OC)SC(=C2c3ccsc3-c3sccc32)S1`, the GI50 in the test with UACC-62 is 26.6 µM (inactive); in the test on MCF7, 27.4 µM (inactive); in the test with SR it was 34 µM (inactive); in the test with ACHN, 74.8 µM (inactive); with IGROV-1 it was 40.6 µM (inactive); in the test on DU-145 it was > 100 µM (inactive). Further, the GI50 with Malme-3M is 43.2 µM (inactive); in the test with HCT-15, 53.7 µM; with U-251 it was 28.3 µM (inactive); in the test with KM12, 40.3 µM (inactive); in the test on OVCAR-3 it was 31 µM (inactive); in the test on OVCAR-4, > 10 µM (inactive). Further, the GI50 in the test with A498 is 24.5 µM (inactive); in the test on SK-OV-3, 12.3 µM (inactive); with HCC 2998, 40.6 µM (inactive); in the test on MDA-MB-435, > 100 µM (inactive); with Hs-578T, 14.9 µM (inactive); in the test on TK-10, 24.5 µM (inactive).

As for `COc1ccc(C(OCC2OC(n3ccc(NC(=O)c4ccccc4)nc3=O)C(O)C2O)(c2ccccc2)c2ccccc2)cc1` (stereo unspecified), the GI50 is 8.26 µM (inactive) with UACC-62; 2.22 µM (inactive) with MCF7; 2.39 µM (inactive) with SR; 3.33 µM (inactive) in the test on SK-MEL-2; 2.9 µM (inactive) with ACHN; 2.08 µM (inactive) with IGROV-1. The GI50 in the test on DU-145 was 3.37 µM (inactive); in the test on Malme-3M it was 1.89 µM (inactive); in the test with HCT-15, 1.82 µM; in the test with U-251, 1.92 µM (inactive); in the test with KM12, 21.1 µM (inactive); in the test on OVCAR-3, 1.69 µM (inactive). For the same molecule, the GI50 was 2.67 µM (inactive) with OVCAR-4; 1.62 µM (inactive) with A498; 7.28 µM (inactive) in the test on SK-OV-3; 3.4 µM (inactive) in the test with HCC 2998; 2.63 µM (inactive) in the test on MDA-MB-435; 2.12 µM (inactive) in the test with Hs-578T.

Turning to `CCN1CCCC(Nc2cc(C)nc(NC(=N)Nc3ccc(Cl)c(Cl)c3)n2)C1` (stereo unspecified), the GI50 in the test with UACC-62 was 1.85 µM (inactive); in the test on MCF7 it was 1.79 µM (inactive); in the test with SR, 1.2 µM (inactive); in the test with SK-MEL-2, 2.04 µM (inactive); in the test on HOP-92 it was 1.31 µM (inactive); in the test with ACHN, 2.32 µM (inactive). In addition, the GI50 in the test with IGROV-1 is 1.38 µM (inactive); in the test on DU-145, 4.43 µM (inactive); in the test with Malme-3M it was 2.39 µM (inactive); in the test with HCT-15, 1.74 µM; with U-251 it was 1.3 µM (inactive); with KM12 it was 1.85 µM (inactive). Besides, the GI50 with OVCAR-3 is 1.67 µM (inactive); with OVCAR-4, 1.85 µM (inactive); in the test with SK-OV-3, 2.78 µM (inactive); in the test with HCC 2998 it was 0.551 µM (active); with MDA-MB-435 it was 1.49 µM (inactive); in the test on Hs-578T, 2.02 µM (inactive). In addition, the GI50 with TK-10 was 1.69 µM (inactive).

Turning to `NC(C(F)(F)F)(C(F)(F)F)P(=O)(c1ccccc1)c1ccccc1`, the GI50 with UACC-62, in the test with MCF7, in the test with SR, in the test on SK-MEL-2, with HOP-92 and in the test with ACHN was > 100 µM (inactive) throughout. In addition, the GI50 in the test with IGROV-1 is > 100 µM (inactive); in the test on DU-145 it was > 100 µM (inactive); with Malme-3M it was > 100 µM (inactive); in the test on HCT-15, over 100 µM; in the test on U-251, > 100 µM (inactive); in the test with KM12, > 100 µM (inactive). Further, the GI50 with OVCAR-3, in the test with OVCAR-4, with SK-OV-3, in the test on HCC 2998, with MDA-MB-435 and in the test with Hs-578T was > 100 µM (inactive) each time. Further, the GI50 in the test with TK-10 was > 100 µM (inactive).

Regarding `COC1(OC)c2no[n+]([O-])c2C(OC)(OC)c2c1no[n+]2[O-]`, the GI50 was 11.2 µM (inactive) with UACC-62; 14.1 µM (inactive) with MCF7; 4.38 µM (inactive) in the test with SR; 21.1 µM (inactive) in the test with SK-MEL-2; 19.5 µM (inactive) with ACHN; 21.7 µM (inactive) with IGROV-1. In addition, the GI50 with DU-145 is 28.3 µM (inactive); with Malme-3M it was 14.4 µM (inactive); in the test on HCT-15, 22 µM; with KM12, 11.7 µM (inactive); with OVCAR-3, 7.85 µM (inactive); in the test on OVCAR-4, 21.9 µM (inactive). Also, the GI50 in the test on A498 was 19.1 µM (inactive); with HCC 2998, 21 µM (inactive); in the test on MDA-MB-435, 17.3 µM (inactive); in the test on Hs-578T, 31.4 µM (inactive); in the test on TK-10, 16.1 µM (inactive).

As to `COc1cc2c(c(OC)c1OC)-c1ccc(OC)c(=O)cc1C(NC(=O)CCCCCNc1ccc(N=[N+]=[N-])cc1[N+](=O)[O-])CC2` (stereo unspecified), the GI50 in the test with UACC-62 is < 0.01 µM (active); with MCF7, < 0.01 µM (active); in the test with SR, < 0.01 µM (active); in the test with SK-MEL-2, < 0.01 µM (active); in the test on ACHN it was 0.0271 µM (active); with IGROV-1 it was < 0.01 µM (active). Moreover, the GI50 in the test on DU-145 is < 0.01 µM (active); with Malme-3M, < 0.01 µM (active); in the test with HCT-15, 0.0418 µM; in the test on U-251 it was < 0.01 µM (active); in the test with KM12, < 0.01 µM (active); in the test with OVCAR-3, < 0.01 µM (active). Besides, the GI50 in the test on OVCAR-4 was 1.56 µM (inactive); with A498, < 0.01 µM (active); in the test on SK-OV-3 it was < 0.01 µM (active); in the test with HCC 2998, < 0.01 µM (active); with MDA-MB-435 it was < 0.01 µM (active); in the test with Hs-578T, < 0.01 µM (active). Further, the GI50 with TK-10 was 0.0426 µM (active).

`O=C(NNC(=O)c1ccccc1Cl)c1ccccc1O`: the GI50 in the test with UACC-62 is 35.7 µM (inactive); in the test with MCF7, 41.4 µM (inactive); in the test with SR it was 29.9 µM (inactive); in the test on SK-MEL-2 it was 53.7 µM (inactive); in the test on IGROV-1 it was 3.84 µM (inactive); with DU-145, > 100 µM (inactive). The GI50 in the test with Malme-3M was 4.24 µM (inactive); in the test on HCT-15, 21.7 µM; in the test with U-251, > 100 µM (inactive); with KM12, 20.1 µM (inactive); in the test with OVCAR-3 it was 25.2 µM (inactive); in the test with OVCAR-4, > 100 µM (inactive). Further, the GI50 with A498 was > 100 µM (inactive); in the test with SK-OV-3, 18.2 µM (inactive); with MDA-MB-435, 67 µM (inactive); with Hs-578T, 41.9 µM (inactive); in the test with TK-10 it was > 100 µM (inactive).

Take `Nc1nc(O)nc2snnc12`: the GI50 is 7.26 µM (inactive) with UACC-62; > 100 µM (inactive) in the test with MCF7; 9.46 µM (inactive) in the test with SR; 1.75 µM (inactive) with SK-MEL-2; 20.3 µM (inactive) in the test with HOP-92; > 100 µM (inactive) in the test on ACHN. For the same molecule, the GI50 in the test with IGROV-1 was > 100 µM (inactive); in the test on DU-145, 16.9 µM (inactive); with Malme-3M it was 8.65 µM (inactive); in the test with HCT-15, over 89.7 µM; in the test on U-251 it was 25.1 µM (inactive); in the test with KM12 it was > 100 µM (inactive). For the same molecule, the GI50 was > 100 µM (inactive) in the test on OVCAR-3; > 53.7 µM (inactive) in the test on OVCAR-4; 50.2 µM (inactive) in the test with SK-OV-3; > 65.6 µM (inactive) in the test with HCC 2998; 4.59 µM (inactive) with MDA-MB-435; > 54.8 µM (inactive) with Hs-578T. In addition, the GI50 in the test on TK-10 was > 22.4 µM (inactive).

On to `COc1ccc([S+]([O-])Cc2cc(OC)c(OC)c(OC)c2)cc1` (stereo unspecified), for which the GI50 with UACC-62 is 42.4 µM (inactive); in the test on MCF7 it was 39.5 µM (inactive); in the test on SR it was 37.8 µM (inactive); with SK-MEL-2, 38.1 µM (inactive); in the test with ACHN, > 100 µM (inactive); in the test on IGROV-1, > 100 µM (inactive). The GI50 with DU-145 was > 100 µM (inactive); with Malme-3M, 58.3 µM (inactive); with HCT-15, 30.4 µM; with U-251, 60.3 µM (inactive); in the test on KM12, 40.8 µM (inactive); with OVCAR-3, 57.8 µM (inactive). The GI50 in the test with OVCAR-4 was > 100 µM (inactive); with SK-OV-3, > 100 µM (inactive); in the test with HCC 2998, 54.3 µM (inactive); in the test on MDA-MB-435 it was 5.96 µM (inactive); in the test with Hs-578T, > 100 µM (inactive); with TK-10, > 100 µM (inactive).

`COc1ccc2c(c1)C1Oc3ccccc3CC1CO2` (stereo unspecified): the GI50 in the test on UACC-62 was 98.2 µM (inactive); in the test on MCF7, 78.2 µM (inactive); with SK-MEL-2, 21.5 µM (inactive); with HOP-92, 25.2 µM (inactive); in the test on ACHN, 60.1 µM (inactive); in the test on IGROV-1, > 100 µM (inactive). For the same molecule, the GI50 in the test on DU-145 is > 100 µM (inactive); with Malme-3M it was 54 µM (inactive); in the test with HCT-15 it was 34.1 µM; with U-251, 91.8 µM (inactive); in the test on KM12, 37.2 µM (inactive); in the test on OVCAR-3 it was 57.7 µM (inactive). The GI50 was 43.9 µM (inactive) in the test with OVCAR-4; 34.4 µM (inactive) with A498; 97.5 µM (inactive) with SK-OV-3; 19.7 µM (inactive) in the test on HCC 2998; 47 µM (inactive) in the test with MDA-MB-435; 34 µM (inactive) with Hs-578T. Also, the GI50 with TK-10 was 73.1 µM (inactive).

For the molecule `N#CC1(c2ccccc2)CCN(C2(c3ccccc3)CCCCC2)CC1`, the GI50 in the test with UACC-62, with MCF7, in the test on SR, in the test with SK-MEL-2, in the test on ACHN and in the test on IGROV-1 was > 100 µM (inactive) throughout. The GI50 in the test with DU-145 was > 100 µM (inactive); with Malme-3M it was 8.83 µM (inactive); in the test on HCT-15, over 100 µM; in the test on U-251, > 100 µM (inactive); in the test on KM12, > 100 µM (inactive); in the test on OVCAR-3, > 100 µM (inactive). The GI50 with OVCAR-4 was > 100 µM (inactive); in the test on SK-OV-3, > 100 µM (inactive); in the test with HCC 2998, > 100 µM (inactive); in the test with MDA-MB-435 it was > 100 µM (inactive); in the test on Hs-578T, 44 µM (inactive); in the test on TK-10, > 100 µM (inactive).

The values are drawn from ChEMBL document CHEMBL1201862, “PubChem BioAssay data set” (2004).
